Reference: patent US20260062422A1 (Halda Therapeutics OpCo, Inc., priority 2022, published 2026)

Experiments:
[1] = tested on: T-Rex 293 cell line SC3 cells having increased expression of androgen receptor protein due to exposure to doxycycline; test: Cellular growth inhibition, T-Rex 293 SC3 cells with doxycycline (androgen receptor induced), CellTiter-Glo; format: cell-based; details: T-Rex 293 SC3 cells with 10 ng/mL doxycycline (increased androgen receptor expression)
In short: (§1)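 GI50 came from a four-parameter fit of CellTiter-Glo 2.0 luminescence after 72 h compound exposure (0.5% DMSO, 37 °C), dosing 24 h post-seeding. SC3 clone cells (2500/well), transfected with wild-type androgen receptor, grew in charcoal-stripped serum medium lacking phenol red, induced with 10 ng/mL doxycycline or left uninduced.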

[2] = tested on: T-Rex 293 cell line SC3 cells lacking increased expression of androgen receptor protein; test: Cellular growth inhibition, T-Rex 293 SC3 cells without doxycycline, CellTiter-Glo; format: cell-based; details: 72 h, T-Rex 293 SC3 cells not exposed to doxycycline, CellTiter-Glo 2.0
In short: as §1

T47D cells = test: Cellular growth inhibition assay for T47D cells, CellTiter-Glo; format: cell-based, human; details: 72 hours treatment, CellTiter-Glo 2.0 cell viability
In short: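 Luminescence from CellTiter-Glo 2.0 after 72 h of compound exposure gives the viability signal. Cells grew in insulin-supplemented (0.2 units/mL) DMEM with 10% FBS and were treated one day after seeding at 0.5% DMSO. GI50 values come from four-parameter nonlinear regression.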

VCaP cells = test: Cellular growth inhibition assay for VCaP cells, CellTiter-Glo; format: cell-based, human; details: 72 hours treatment, CellTiter-Glo 2.0
In short: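 GI50 values come from four-parameter curve fits of luminescence data normalized to a zero baseline. Compound, in medium with 0.5% DMSO, was added one day after plating and left for 72 h before CellTiter-Glo 2.0 addition.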

SMILES	GI50 (T47D cells; Homo sapiens, T47D, 72 h) [nM]	GI50 (VCaP cells; Homo sapiens, VCaP, 72 h) [nM]	GI50 (T47D cells) [nM]	GI50 (VCaP cells) [nM]	GI50 ([1]; 72 h) [nM]	GI50 [2] [nM]	GI50 ([1]; 72 hours) [nM]
[2H]C([2H])(c1ccc(C2=N[C@@H](Cc3ncco3)c3nnc(C)n3-c3sc(C)c(C)c32)cc1)N1CC[C@@]2(CCCN(c3ncc(C(=O)N[C@H]4C(C)(C)[C@H](Oc5ccc(C#N)c(Cl)c5)C4(C)C)cn3)C2)C1 [Compound I-433]	500 to 1500	< 500	–	–	< 500	< 500	–
Cc1sc2c(c1C)C(c1ccc(N3CC(CC4CN(c5ncc(C(=O)N[C@H]6C(C)(C)[C@H](Oc7ccc(C#N)c(Cl)c7)C6(C)C)cn5)C4)C3)cc1)=N[C@@H](C)c1nnc(C)n1-2 [Compound I-514]	500 to 1500	> 3000	–	–	< 500	> 3000	–
CCNC(=O)C[C@@H]1N=C(c2ccc(N3CC(N(C)C4CCN(c5ncc(C(=O)N[C@H]6C(C)(C)[C@H](Oc7ccc(C#N)c(Cl)c7)C6(C)C)cn5)CC4)C3)cc2)c2c(sc(C)c2C)-n2c(C)nnc21 [Compound I-122]	< 500	< 500	–	–	< 500	500 to 1500	–
Cc1sc2c(c1C)C(c1ccc(C(=O)N3CCC(Cc4ncc(C(=O)N[C@H]5C(C)(C)[C@H](Oc6ccc(C#N)c(Cl)c6)C5(C)C)cn4)CC3)cc1)=N[C@H](Cc1ncco1)c1nnc(C)n1-2 [Compound I-289]	> 3000	500 to 1500	–	–	< 500	> 3000	–
Cc1sc2c(c1C)C(c1ccc(OC3CC4(CCN(c5ncc(C(=O)N[C@H]6C(C)(C)[C@H](Oc7ccc(C#N)c(Cl)c7)C6(C)C)cn5)CC4)C3)cc1)=N/C(=C/c1ncco1)c1nnc(C)n1-2 [Compound I-230, N-[3-(3-chloro-4-cyano-phenoxy)-2,2,4,4-tetramethyl-cyclobutyl]-2-[2-[4-[(9E)-4,5,13-trimethyl-9-(oxazol-2-ylmethylene)-3-thia-1,8,11,12-tetrazatricyclo[8.3.0.02,6]trideca-2(6),4,7,10,12-pentaen-7-yl]phenoxy]-7-azaspiro[3.5]nonan-7-yl]pyrimidine-5-carboxamide]	> 3000	< 500	–	–	< 500	> 3000	–
Cc1sc2c(c1C)C(c1ccc(CC[C@H]3C[C@]4(CCCN(c5ncc(C(=O)N[C@H]6C(C)(C)[C@H](Oc7ccc(C#N)c(Cl)c7)C6(C)C)cn5)C4)C3)cc1)=N[C@@H](Cc1ncco1)c1nnc(C)n1-2 [Compound I-239]	> 3000	> 3000	–	–	> 3000	> 3000	–
Cc1nc(N2CCC3(CC2)CC2(CC(Oc4ccc(C5=N[C@@H](Cc6ncco6)c6nnc(C)n6-c6sc(C)c(C)c65)cc4)C2)C3)ncc1C(=O)N[C@H]1C(C)(C)[C@H](Oc2ccc(C#N)c(Cl)c2)C1(C)C [Compound I-673, N-[3-(3-chloro-4-cyano-phenoxy)-2,2,4,4-tetramethyl-cyclobutyl]-4-methyl-2-[2-[4-[(9S)-4,5,13-trimethyl-9-(oxazol-2-ylmethyl)-3-thia-1,8,11,12-tetrazatricyclo[8.3.0.02,6]trideca-2(6),4,7,10,12-pentaen-7-yl]phenoxy]-9-azadispiro [3.1.56.14]dodecan-9-yl]pyrimidine-5-carboxamide]	< 500	< 500	–	–	< 500	> 3000	–
Cc1sc2c(c1C)C(c1ccc(C(=O)N(C)CCCc3ncc(C(=O)N[C@H]4C(C)(C)[C@H](Oc5ccc(C#N)c(Cl)c5)C4(C)C)cn3)cc1)=N[C@@H](Cc1ncco1)c1nnc(C)n1-2 [Compound I-342]	> 3000	> 3000	–	–	> 3000	> 3000	–
Cc1sc2c(c1C)C(c1ccc(CC3CCN(c4ncc(C(=O)N[C@H]5C(C)(C)[C@H](Oc6ccc(C#N)c(Cl)c6)C5(C)C)cn4)CC3)cc1)=NC1(CC1)c1nnc(C)n1-2 [Compound I-555]	> 3000	< 500	–	–	< 500	500 to 1500	–
Cc1sc2c(c1C)C(c1ccc(CC3CC4(CCN(c5ccc(C(=O)N[C@H]6C(C)(C)[C@H](Oc7ccc(C#N)c(Cl)c7)C6(C)C)cn5)CC4)C3)cc1)=N[C@@H](Cc1ncco1)c1nnc(C)n1-2 [Compound I-548]	< 500	500 to 1500	–	–	< 500	< 500	–
Cc1sc2c(c1C)C(c1ccc(OC3CC4(C3)CC3(CCN(c5ccc(C(=O)N[C@H]6C(C)(C)[C@H](Oc7ccc(C#N)c(Cl)c7)C6(C)C)cn5)CC3)C4)cc1)=N[C@@H](C)c1nnc(C)n1-2 [Compound I-550]	< 500	< 500	–	–	< 500	> 3000	–
Cc1sc2c(c1C)C(c1ccc(OC3CC4(C3)CC3(CCN(c5ncc(C(=O)N[C@H]6C(C)(C)[C@H](Oc7ccc(C#N)c(Cl)c7)C6(C)C)c(Cl)n5)CC3)C4)cc1)=N[C@@H](Cc1ncco1)c1nnc(C)n1-2 [Compound I-672, 4-chloro-N-((1r,3r)-3-(3-chloro-4-cyanophenoxy)-2,2,4,4-tetramethylcyclobutyl)-2-(2-(4-((S)-2,3,9-trimethyl-6-(oxazol-2-ylmethyl)-6H-thieno[3,2-f][1,2,4]triazolo[4,3-a][1,4]diazepin-4-yl)phenoxy)-9-azadispiro[3.1.56.14]dodecan-9-yl)pyrimidine-5-carboxamide]	< 500	< 500	–	–	> 3000	> 3000	–

More lines, main results first:

GI50 (T47D cells; Homo sapiens, T47D, 72 h) [nM]	GI50 (VCaP cells; Homo sapiens, VCaP, 72 h) [nM]	GI50 (T47D cells) [nM]	GI50 (VCaP cells) [nM]	SMILES	GI50 ([1]; 72 h) [nM]	GI50 [2] [nM]	GI50 ([1]; 72 hours) [nM]
< 500	< 500	–	–	Cc1sc2c(c1C)C(c1ccc(OCC[C@@H]3CCCN(c4ncc(C(=O)N[C@H]5C(C)(C)[C@H](Oc6ccc(C#N)c(Cl)c6)C5(C)C)cn4)C3)cc1)=N[C@@H](Cc1ncco1)c1nnc(C)n1-2 [Compound I-300]	< 500	500 to 1500	–
< 500	> 3000	–	–	Cc1sc2c(c1C)C(c1ccc(-c3ccc(OC4CCN(c5ncc(C(=O)N[C@H]6C(C)(C)[C@H](Oc7ccc(C#N)c(Cl)c7)C6(C)C)cn5)CC4)s3)cc1)=N[C@@H](Cc1ncco1)c1nnc(C)n1-2 [Compound I-409]	< 500	> 3000	–
< 500	< 500	–	–	Cc1sc2c(c1C)C(c1ccc([C@H]3C[C@@H](C4CCN(c5ncc(C(=O)N[C@H]6C(C)(C)[C@H](Oc7ccc(C#N)c(Cl)c7)C6(C)C)cn5)CC4)C3)cc1)=N[C@@H](Cc1ncco1)c1nnc(C)n1-2 [Compound I-398]	< 500	> 3000	–
< 500	< 500	–	–	Cc1sc2c(c1C)C(c1ccc(C[C@H]3CC[C@@]4(C3)CN(c3ncc(C(=O)N[C@H]5C(C)(C)[C@H](Oc6ccc(C#N)c(Cl)c6)C5(C)C)cn3)CCO4)cc1)=N[C@@H](Cc1ncco1)c1nnc(C)n1-2 [Compound I-311]	< 500	< 500	–
< 500	< 500	–	–	Cc1sc2c(c1C)C(c1ccc([C@H]3C[C@H]([C@H]4CCN(c5ncc(C(=O)N[C@H]6C(C)(C)[C@H](Oc7ccc(C#N)c(Cl)c7)C6(C)C)cn5)C4)C3)cc1)=N[C@H](Cc1ncco1)c1nnc(C)n1-2 [Compound I-418]	< 500	< 500	–
–	–	> 3000	500 to 1500	Cc1sc2c(c1C)C(c1ccc(C(C)(C)N3CC4(CCN(c5ncc(C(=O)N[C@H]6C(C)(C)[C@H](Oc7ccc(C#N)c(Cl)c7)C6(C)C)cn5)CC4)C3)cc1)=N[C@@H](Cc1ncco1)c1nnc(C)n1-2 [Compound I-438]	–	1500 to 3000	< 500
> 3000	< 500	–	–	Cc1sc2c(c1C)C(c1ccc(-n3nccc3C3CCN(c4ncc(C(=O)N[C@H]5C(C)(C)[C@H](Oc6ccc(C#N)c(Cl)c6)C5(C)C)cn4)CC3)cc1)=N[C@@H](Cc1ncco1)c1nnc(C)n1-2 [Compound I-455]	< 500	> 3000	–
500 to 1500	< 500	–	–	Cc1sc2c(c1C)C(c1ccc(N3CCN(C(=O)c4ncc(C(=O)N[C@H]5C(C)(C)[C@H](Oc6ccc(C#N)c(Cl)c6)C5(C)C)cn4)CC3)cc1)=N[C@H](Cc1ncco1)c1nnc(C)n1-2 [Compound I-341]	500 to 1500	500 to 1500	–
500 to 1500	< 500	–	–	Cc1sc2c(c1C)C(c1ccc(CC(=O)N3CCC(c4ncc(C(=O)N[C@H]5C(C)(C)[C@H](Oc6ccc(C#N)c(Cl)c6)C5(C)C)cn4)CC3)cc1)=N[C@H](Cc1ncco1)c1nnc(C)n1-2 [Compound I-370]	< 500	> 3000	–
< 500	< 500	–	–	Cc1sc2c(c1C)C(c1ccc(O[C@H]3COC4(C3)CN(c3ncc(C(=O)N[C@H]5C(C)(C)[C@H](Oc6ccc(C#N)c(Cl)c6)C5(C)C)cn3)C4)cc1)=N[C@@H](Cc1ncco1)c1nnc(C)n1-2 [Compound I-181]	< 500	< 500	–
< 500	< 500	–	–	Cc1sc2c(c1C)C(c1ccc(O[C@H]3C[C@H](OC4CCN(c5ncc(C(=O)N[C@H]6C(C)(C)[C@H](Oc7ccc(C#N)c(Cl)c7)C6(C)C)cn5)CC4)C3)cc1)=N[C@@H](Cc1ncco1)c1nnc(C)n1-2 [Compound I-190]	< 500	> 3000	–
< 500	< 500	–	–	Cc1sc2c(c1C)C(c1ccc(O[C@@H]3CCCN(c4ncc(C(=O)N[C@H]5C(C)(C)[C@H](Oc6ccc(C#N)c(Cl)c6)C5(C)C)cn4)C3)cc1)=N[C@@H](Cc1ncco1)c1nnc(C)n1-2 [Compound I-260]	< 500	1500 to 3000	–
